Test results published in article PMC5500990 (European Journal of Medicinal Chemistry, 2017).
Where a SMILES comes first, the peptide text is derived from it. [ ]: non-standard residue; d: D form. dNMeF = CN[C@H](Cc1ccccc1)C(=O)O

Key:
DMS79 cells [1] = assay: Annexin V conjugate / SYTOX Blue flow cytometric analysis of apoptosis; type: cell-based, human; settings: 24 h, n = 3
Protocol: The novel potent N^ind-butylated peptide, 16, and its unmodified version 1 [26] were incubated for 24 h with DMS79 cells and double stained using Annexin V Fluor® 555 (AnnV) conjugate and SYTOX® Blue (SyB) dead cell stain [29], [32]. The former stain binds to phosphatidyl serine (PS) residues that become exposed at the outer surface of the plasma membrane of cells undergoing apoptosis. DMS79 cell line was selected as a variant cell line model more resistant to chemotherapy since it is established from a SCLC patient treated with three different chemotherapeutics and radiation therapy. Peptide 16 was the most cytotoxic against this cell line (Table 1).
Quantitative assessment of apoptosis was evaluated at low (2 μM) and high (6 μM) peptide concentrations using flow cytometry. A bar-chart (Fig. 6) presents the levels of cells classified into four stages; live cells (AnnV-/SyB-), early apoptotic cells (AnnV+/SyB-), late apoptotic cells (AnnV+/SyB+) and necrotic cells (AnnV-/SyB+). Dot blots are presented in the SD (Fig. S37). […] In contrast, the singly butylated peptide (16) caused highly significant (P < 0.0005) apoptosis in a concentration dependent manner. Even at a low concentration of peptide (2 μM), a small increase (P < 0.05) of early apoptotic cells was observed relative to the control sample.
The experiment was performed according to manufacturer's instructions. Briefly, DMS79 cells were seeded in 12-well plates at a seeding density of 1 × 10^5 cells/well/1980 μl complete medium. Negative control (untreated), peptides at final well concentrations of 2 and 6 μM were prepared and incubated as the above conditions stated in Section 5.1 for 24 h (total volume of wells was 2 ml). The contents of the wells were then carefully transferred into Eppendorf® tubes and centrifuged for 5 min at 500 rpm and the media discarded. Cells pellets were washed with cold PBS. Cells were gently re-suspended in 100 μl annexin-binding buffer followed by the addition of 5 μl of the Annexin V conjugate (Alexa Fluor® 555) and 0.5 μl of dead cell stain (SYTOX® Blue). Tubes were left for 10 min at RT, then 400 μl of annexin-binding buffer were added and samples were analysed on a flow cytometer (BD Biosciences - LSR Fortessa; Diva 8.0.1 software; Annexin V conjugate was excited with 561 nm laser and fluorescence measured using a 586/15 nm bandpass filter; dead cell stain was excited with 405 nm laser and fluorescence measured using 450/50 nm bandpass filter). Assays were repeated three independent times.

H69 and DMS79 cells = tested on: H69 and DMS79 cells; parameters: method as in PMID 30108771; settings: range over both cell lines; read-out: IC50 values in the range against H69 and DMS79; cited from earlier work
DMS79 cells [2] = tested on: DMS79 cells; parameters: method as in PMID 30108771; settings: treatment for 48 h; obtained previously; read-out: IC50 ± SE, DMS79 Cells; cited from earlier work
H69 cells = tested on: H69 cells; parameters: method as in PMID 30108771; settings: treatment for 48 h; obtained previously; read-out: IC50 ± SE, H69 Cells; cited from earlier work

Compound | % events, early apoptotic cells (AnnV+/SyB-) (DMS79 cells [1]; DMS79, 2 μM) [%] | % events, late apoptotic cells (AnnV+/SyB+) (DMS79 cells [1]; DMS79, 2 μM) [%] | % events, live cells (AnnV-/SyB-) (DMS79 cells [1]; DMS79, 2 μM) [%] | % events, necrotic cells (AnnV-/SyB+) (DMS79 cells [1]; DMS79, 2 μM) [%] | % events, early apoptotic cells (AnnV+/SyB-) (DMS79 cells [1]; DMS79, 6 μM) [%] | % events, late apoptotic cells (AnnV+/SyB+) (DMS79 cells [1]; DMS79, 6 μM) [%] | % events, live cells (AnnV-/SyB-) (DMS79 cells [1]; DMS79, 6 μM) [%] | % events, necrotic cells (AnnV-/SyB+) (DMS79 cells [1]; DMS79, 6 μM) [%] | IC50 (H69 and DMS79 cells) [µM] | IC50 (DMS79 cells [2]) [µM] | IC50 (H69 cells) [µM]
CN[C@H](Cc1ccccc1)C(=O)N[C@H](Cc1c[nH]c2ccccc12)C(=O)N[C@@H](Cc1ccccc1)C(=O)N[C@H](Cc1c[nH]c2ccccc12)C(=O)N[C@@H](CC(C)C)C(N)=O [Peptide 1, DMePhe-DTrp-Phe-DTrp-Leu-NH2] (H-[dNMeF][dW]F[dW]L-NH2; N-terminus assumed) | 6.2 | 23.9 | 67.6 | 2.3 | 6.6 | 22.9 | 68.3 | 2.2 | 23 to 31 |  | 
[Arg^6,D-Trp^7,9,MePhe^8]SP (6–11) [SPG] |  |  |  |  |  |  |  |  |  | > 30 | > 30
